US8426202B2, “Cell culture medium” (Cellca GmbH, priority 2005, dated 2013)
“And” between values parts separate entries of the source, which are not always exact repeats. Identical values can stand only once. Like-named read-outs stand apart in the source and are kept apart here.

Tests used:
[1] = test system: CHO cell line that expresses an antibody; assay: Fed-batch experiment with the substances according to the invention (Example 2, Table 2); type: cell-based, Chinese hamster; design: Viabil.: concentration or dose not given beside the values
Excerpt: (§1) Feed took place at regular intervals.

[2] = test system: CHO cell line that expresses an antibody; assay: Batch experiment with the substances according to the invention (Example 1); type: cell-based, Chinese hamster; details: batch mode, substance 0.5-1 g/l, basal medium glucose 4.7 g/l, glutamine […]
Protocol: Cells were stored in the gas phase of liquid nitrogen. One to two ampoules were thawed in nutrient medium preheated to 37° C. and transferred to spinner bottles, shaking flasks or T-bottles. In the first few days of cultivation the medium was changed, depending on the clone.
Depending on the clone, cells were split either every second day or every third day or after two and three days alternately into new medium, i.e. a portion of the cell suspension was removed from culture and a smaller portion of the cell suspension was reused as inoculum for the next culture. This inoculum was made up with fresh prewarmed nutrient medium. Cells were incubated at 37° C. in an incubator with a CO2 atmosphere. An alternative for incubating cells was cultivation in an incubation chamber at 37° C., in this way cells were held in culture for several passages. A passage means a cultivation time of two to three days. At various points of time, cell suspension was taken from strain maintenance and used as inoculum for experiments. The experiments were carried out in various cultivation systems, for example in spinner bottles, T-bottles, shaking flasks, culture tubes or in controlled bioreactors.
as §1

[3] = test system: CHO cell line that expresses an antibody; details: fed-batch, glutamine-free basal and feed media, substance 0.5-1 g/l
Excerpt: (§2) A CHO cell line that expresses an antibody was used for the experiments.
This is a serum-free, protein-free nutrient medium. It is a ready-made, sterile-filtered nutrient medium.
After 1-4 days the cells were supplemented with a feed medium, i.e. the process was switched to fed-batch mode. Feed took place at regular intervals. In fed-batch experiments, a protein-free and serum-free feed medium from the company HyQ (R05.2 supplement, Cat. No.: SH30584.04, Lot No.: APF21457G) was used.
All substances (chemicals) used according to the invention were obtained from the company Sigma and stock solutions were prepared from them. From the stock solutions, the substances were put at the desired final concentration in culture tubes. The various culture tubes prepared in this way were finally inoculated with the antibody-producing CHO-clone at a target inoculation cell concentration (1-3×10^5/ml). For this, the corresponding amount of inoculum cells was calculated and the required amount of inoculum cell suspension was centrifuged. […] In this way the desired inoculation cell concentration was adjusted in the cell suspension being investigated. The cell suspension thus prepared was proportioned in the culture tubes, which were provided with the substances according to the invention beforehand. The culture tubes were incubated at 37° C., and 8% CO2 atmosphere, with shaking. The culture tubes were cultivated for 8-11 days in the batch mode or in the fed-batch mode. Samples for offline measurement of the variables were taken from the culture vessels at regular intervals, for example daily or on every third day. The metabolic variables and cell concentrations of the samples were measured. Cell concentration and cell vitality were measured with a CeDex instrument. The metabolic variables (glucose, lactate, glutamine and ammonium) were determined with an analyzer (BioProfile 100).
(§3) The following final concentrations of the substances according to the invention were established in a nutrient medium after inoculation:
The substances according to the invention were tested under fed-batch conditions. […] The feed medium used was from the company HyQ (R05.2 supplement, Cat. No.: SH30584.04, Lot No.: APF21457G). The feed medium was glutamine-free (Table 4).

[4] = test system: CHO cell line that expresses an antibody; details: fed-batch, basal medium 4 mM glutamine, feed with 3 g/l Ala-Gln and 3 g/l Gly-Gln, substance 0.5-1 g/l
Protocol: as §2
The experiments were carried out either in batch mode or in fed-batch mode. When the process was carried out in fed-batch mode, the process was first started in batch mode in the above-mentioned basal medium and cells were cultivated in this manner for 1-4 days. After 1-4 days the cells were supplemented with a feed medium, i.e. the process was switched to fed-batch mode. Feed took place at regular intervals. In fed-batch experiments, a protein-free and serum-free feed medium from the company HyQ (R05.2 supplement, Cat. No.: SH30584.04, Lot No.: APF21457G) was used.
From the stock solutions, the substances were put at the desired final concentration in culture tubes. The various culture tubes prepared in this way were finally inoculated with the antibody-producing CHO-clone at a target inoculation cell concentration (1-3×10^5/ml). For this, the corresponding amount of inoculum cells was calculated and the required amount of inoculum cell suspension was centrifuged. […] In this way the desired inoculation cell concentration was adjusted in the cell suspension being investigated. The cell suspension thus prepared was proportioned in the culture tubes, which were provided with the substances according to the invention beforehand. The culture tubes were incubated at 37° C., and 8% CO2 atmosphere, with shaking. The culture tubes were cultivated for 8-11 days in the batch mode or in the fed-batch mode. Samples for offline measurement of the variables were taken from the culture vessels at regular intervals, for example daily or on every third day. The metabolic variables and cell concentrations of the samples were measured. Cell concentration and cell vitality were measured with a CeDex instrument. The metabolic variables (glucose, lactate, glutamine and ammonium) were determined with an analyzer (BioProfile 100).
as §3
The substances according to the invention were tested under fed-batch conditions. […] The feed medium used was from the company HyQ (R05.2 supplement, Cat. No.: SH30584.04, Lot No.: APF21457G). 3 g/l alanyl-glutamine (Ala-Gin) and 3 g/l glycyl-glutamine (Gly-Gln) were added to the feed medium.

`O=C(O)CCCCC(=O)O` [Adipic acid] was tested, and the “Total Cell Density TCD” value ([1]; day 0, fed-batch) was 1.5 E5/ml, the Viabil. ([1]; day 0, fed-batch) was 91% and the “Viable Cell Density (VCD)” value ([1]; day 0, fed-batch) was 1.37 E5/ml. The “Total Cell Density TCD” value ([1]; day 2, fed-batch) was 4.4 E5/ml, the Viabil. ([1]; day 2, fed-batch) was 98% and the “Viable Cell Density (VCD)” value ([1]; day 2, fed-batch) was 4.3 E5/ml. For the same molecule, the “Total Cell Density TCD” value ([1]; day 5, fed-batch) was 12 E5/ml and 11.8 E5/ml, the Viabil. ([1]; day 5, fed-batch) was 98% and 95% and the “Viable Cell Density (VCD)” value ([1]; day 5, fed-batch) was 11.7 E5/ml and 11.2 E5/ml. The “Total Cell Density TCD” value ([1]; day 8, fed-batch) was 40 E5/ml and 36.3 E5/ml, the Viabil. ([1]; day 8, fed-batch) was 91% and 92% and the Gln ([2]; day 0) was 1.53 mM. For the same molecule, the Glucose ([2]; day 0) was 4.69 g/L, the Lactate ([2]; day 0) was 0 g/L and the NH4 ([2]; day 0) was 1.22 mM. For the same molecule, the “Specific Glutamin consumption (Gln/VCD)” value ([2]; day 0) was 1.49, the “Specific ammonia production (NH4/VCD)” value ([2]; day 0) was 1.18 and the “Specific glucose consumption (Gluc/VCD)” value ([2]; day 0) was 4.55. For the same molecule, the “Specific lactate production (Lac/VCD)” value ([2]; day 0) was 0.00, the “Total Cell Density TCD” value ([2]; day 0) was 1.07 E5/ml and the Viabil. ([2]; day 0) was 96%. The “Viable Cell Density (VCD)” value ([2]; day 0) was 1.03 E5/ml, the Gln ([2]; day 3) was 0.86 mM and the Glucose ([2]; day 3) was 4.28 g/L. The Lactate ([2]; day 3) was 0.62 g/L, the NH4 ([2]; day 3) was 1.81 mM and the “Specific Glutamin consumption (Gln/VCD)” value ([2]; day 3) was 0.12. The “Specific ammonia production (NH4/VCD)” value ([2]; day 3) was 0.25, the “Specific glucose consumption (Gluc/VCD)” value ([2]; day 3) was 0.60 and the “Specific lactate production (Lac/VCD)” value ([2]; day 3) was 0.09. For the same molecule, the “Total Cell Density TCD” value ([2]; day 3) was 7.2 E5/ml, the Viabil. ([2]; day 3) was 99% and the “Viable Cell Density (VCD)” value ([2]; day 3) was 7.1 E5/ml. It also gave a Gln ([2]; day 6) of 0.22 mM, a Glucose ([2]; day 6) of 2.95 g/L and a Lactate ([2]; day 6) of 0.93 g/L. For the same molecule, the NH4 ([2]; day 6) was 2.67 mM, the “Specific Glutamin consumption (Gln/VCD)” value ([2]; day 6) was 0.01 and the “Specific ammonia production (NH4/VCD)” value ([2]; day 6) was 0.07. The “Specific glucose consumption (Gluc/VCD)” value ([2]; day 6) was 0.07, the “Specific lactate production (Lac/VCD)” value ([2]; day 6) was 0.02 and the “Total Cell Density TCD” value ([2]; day 6) was 41.6 E5/ml. For the same molecule, the Viabil. ([2]; day 6) was 98%, the “Viable Cell Density (VCD)” value ([2]; day 6) was 40.6 E5/ml and the Gln ([2]; day 8) was 0.32 mM. The Glucose ([2]; day 8) was 1.94 g/L, the Lactate ([2]; day 8) was 0.95 g/L and the NH4 ([2]; day 8) was 3 mM. The “Specific Glutamin consumption (Gln/VCD)” value ([2]; day 8) was 0.02, the “Specific ammonia production (NH4/VCD)” value ([2]; day 8) was 0.20 and the “Specific glucose consumption (Gluc/VCD)” value ([2]; day 8) was 0.13. The “Specific lactate production (Lac/VCD)” value ([2]; day 8) was 0.06, the “Total Cell Density TCD” value ([2]; day 8) was 17.1 E5/ml and the Viabil. ([2]; day 8) was 87%. The “Viable Cell Density (VCD)” value ([2]; day 8) was 14.9 E5/ml, the Gln ([2]; day 11) was 0.49 mM and the Glucose ([2]; day 11) was 0.89 g/L. For the same molecule, the Lactate ([2]; day 11) was 1.28 g/L, the NH4 ([2]; day 11) was 3.38 mM and the “Specific Glutamin consumption (Gln/VCD)” value ([2]; day 11) was 0.05. For the same molecule, the “Specific ammonia production (NH4/VCD)” value ([2]; day 11) was 0.32, the “Specific glucose consumption (Gluc/VCD)” value ([2]; day 11) was 0.08 and the “Specific lactate production (Lac/VCD)” value ([2]; day 11) was 0.12. For the same molecule, the “Total Cell Density TCD” value ([2]; day 11) was 23 E5/ml, the Viabil. ([2]; day 11) was 46% and the “Viable Cell Density (VCD)” value ([2]; day 11) was 10.6 E5/ml.
`O=C(O)CCC(=O)C(=O)O` [α-Keto-glutarate] was tested, and the “Sp. Gluc cons.” value ([3]; day 0) was 94, the “Sp. NH4 prod” value ([3]; day 0) was 100 % of control and the TCD ([3]; day 0) was 100 % of control. For the same molecule, the VCD ([3]; day 0) was 100 % of control, the Viabil. ([3]; day 0) was 94% and the “Sp. Gluc cons.” value ([3]; day 3) was 98. The “Sp. Lactate prod.” value ([3]; day 3) was 70 % of control, the “Sp. NH4 prod” value ([3]; day 3) was 94 % of control and the TCD ([3]; day 3) was 94 % of control. The VCD ([3]; day 3) was 103 % of control, the Viabil. ([3]; day 3) was 96% and the “Sp. Gluc cons.” value ([3]; day 5) was 98. For the same molecule, the “Sp. Lactate prod.” value ([3]; day 5) was 72 % of control, the “Sp. NH4 prod” value ([3]; day 5) was 94 % of control and the TCD ([3]; day 5) was 103 % of control. For the same molecule, the Viabil. ([3]; day 5) was 93%, the “Sp. Gluc cons.” value ([3]; day 7) was 95 and the “Sp. Lactate prod.” value ([3]; day 7) was 72 % of control. For the same molecule, the “Sp. NH4 prod” value ([3]; day 7) was 95 % of control, the TCD ([3]; day 7) was 96 % of control and the VCD ([3]; day 7) was 99 % of control. The Viabil. ([3]; day 7) was 90%, the “Sp. Gluc cons.” value ([3]; day 9) was 109 and the “Sp. Lactate prod.” value ([3]; day 9) was 79 % of control. For the same molecule, the “Sp. NH4 prod” value ([3]; day 9) was 103 % of control, the TCD ([3]; day 9) was 92 % of control and the VCD ([3]; day 9) was 92 % of control. The Viabil. ([3]; day 9) was 93%, the Viabil. ([1]; day 0, fed-batch) was 91% and the Viabil. ([1]; day 2, fed-batch) was 97%. The Viabil. ([1]; day 5, fed-batch) was 97%, the Viabil. ([1]; day 8, fed-batch) was 95% and the Viabil. ([4]; day 0) was 96%. It also gave a Viabil. ([4]; day 3) of 93%, a Viabil. ([4]; day 5) of 96% and a Viabil. ([4]; day 7) of 84%. The Viabil. ([4]; day 9) was 67%.
With `O=C(O)CC(O)C(=O)O` (centres unmarked) [Malic acid] the “Total Cell Density TCD” value ([1]; day 0, fed-batch) was 1.5 E5/ml, the Viabil. ([1]; day 0, fed-batch) was 91% and the “Viable Cell Density (VCD)” value ([1]; day 0, fed-batch) was 1.37 E5/ml. The “Total Cell Density TCD” value ([1]; day 2, fed-batch) was 3.9 E5/ml and 4.2 E5/ml, the Viabil. ([1]; day 2, fed-batch) was 97% and 98% and the “Viable Cell Density (VCD)” value ([1]; day 2, fed-batch) was 3.8 E5/ml and 4.1 E5/ml. For the same molecule, the “Total Cell Density TCD” value ([1]; day 5, fed-batch) was 14.1 E5/ml and 12.8 E5/ml, the Viabil. ([1]; day 5, fed-batch) was 97% and 98% and the “Viable Cell Density (VCD)” value ([1]; day 5, fed-batch) was 13.7 E5/ml and 12.5 E5/ml. The “Total Cell Density TCD” value ([1]; day 8, fed-batch) was 49.1 E5/ml and 45.3 E5/ml, the Viabil. ([1]; day 8, fed-batch) was 91% and 92% and the “Viable Cell Density (VCD)” value ([1]; day 8, fed-batch) was 44.9 E5/ml and 41.6 E5/ml. For the same molecule, the Gln ([2]; day 0) was 1.53 mM, the Glucose ([2]; day 0) was 4.69 g/L and the Lactate ([2]; day 0) was 0 g/L. For the same molecule, the NH4 ([2]; day 0) was 1.22 mM, the “Specific Glutamin consumption (Gln/VCD)” value ([2]; day 0) was 1.49 and the “Specific ammonia production (NH4/VCD)” value ([2]; day 0) was 1.18. For the same molecule, the “Specific glucose consumption (Gluc/VCD)” value ([2]; day 0) was 4.55, the “Specific lactate production (Lac/VCD)” value ([2]; day 0) was 0.00 and the “Total Cell Density TCD” value ([2]; day 0) was 1.07 E5/ml. The Viabil. ([2]; day 0) was 96%, the “Viable Cell Density (VCD)” value ([2]; day 0) was 1.03 E5/ml and the Gln ([2]; day 3) was 0.67 mM. It also gave a Glucose ([2]; day 3) of 3.9 g/L, a Lactate ([2]; day 3) of 0.85 g/L and an NH4 ([2]; day 3) of 1.9 mM. The “Specific Glutamin consumption (Gln/VCD)” value ([2]; day 3) was 0.09, the “Specific ammonia production (NH4/VCD)” value ([2]; day 3) was 0.25 and the “Specific glucose consumption (Gluc/VCD)” value ([2]; day 3) was 0.51. For the same molecule, the “Specific lactate production (Lac/VCD)” value ([2]; day 3) was 0.11, the “Total Cell Density TCD” value ([2]; day 3) was 7.8 E5/ml and the Viabil. ([2]; day 3) was 97%. The “Viable Cell Density (VCD)” value ([2]; day 3) was 7.6 E5/ml, the Gln ([2]; day 6) was 0.28 mM and the Glucose ([2]; day 6) was 2.65 g/L. For the same molecule, the Lactate ([2]; day 6) was 1.14 g/L, the NH4 ([2]; day 6) was 2.42 mM and the “Specific Glutamin consumption (Gln/VCD)” value ([2]; day 6) was 0.01. The “Specific ammonia production (NH4/VCD)” value ([2]; day 6) was 0.06, the “Specific glucose consumption (Gluc/VCD)” value ([2]; day 6) was 0.06 and the “Specific lactate production (Lac/VCD)” value ([2]; day 6) was 0.03. For the same molecule, the “Total Cell Density TCD” value ([2]; day 6) was 43.4 E5/ml, the Viabil. ([2]; day 6) was 97% and the “Viable Cell Density (VCD)” value ([2]; day 6) was 42.2 E5/ml. It also gave a Gln ([2]; day 8) of 0.37 mM, a Glucose ([2]; day 8) of 1.76 g/L and a Lactate ([2]; day 8) of 0.94 g/L. For the same molecule, the NH4 ([2]; day 8) was 2.4 mM, the “Specific Glutamin consumption (Gln/VCD)” value ([2]; day 8) was 0.02 and the “Specific ammonia production (NH4/VCD)” value ([2]; day 8) was 0.10. The “Specific glucose consumption (Gluc/VCD)” value ([2]; day 8) was 0.08, the “Specific lactate production (Lac/VCD)” value ([2]; day 8) was 0.04 and the “Total Cell Density TCD” value ([2]; day 8) was 26.1 E5/ml. The Viabil. ([2]; day 8) was 89%, the “Viable Cell Density (VCD)” value ([2]; day 8) was 23.2 E5/ml and the Gln ([2]; day 11) was 0.44 mM. It also gave a Glucose ([2]; day 11) of 0.47 g/L, a Lactate ([2]; day 11) of 1.2 g/L and an NH4 ([2]; day 11) of 2.75 mM. For the same molecule, the “Specific Glutamin consumption (Gln/VCD)” value ([2]; day 11) was 0.03, the “Specific ammonia production (NH4/VCD)” value ([2]; day 11) was 0.16 and the “Specific glucose consumption (Gluc/VCD)” value ([2]; day 11) was 0.03. The “Specific lactate production (Lac/VCD)” value ([2]; day 11) was 0.07, the “Total Cell Density TCD” value ([2]; day 11) was 28.5 E5/ml and the Viabil. ([2]; day 11) was 61%. For the same molecule, the “Viable Cell Density (VCD)” value ([2]; day 11) was 17.5 E5/ml.
